Results from patent publication US20260124170A1, “PHARMACEUTICAL COMPOSITION COMPRISING METABOLITE OF ENAVOGLIFLOZIN, AND USE THEREOF” (DAEWOONG PHARMACEUTICAL CO., LTD., priority 2022, published 2026).

How the values were obtained:
[1] = biological target: T1, SGLT2 (Homo sapiens, UniProt P31639); assay: Inhibition of [14C]AMG uptake in SGLT2-overexpressing CHO cells; type: cell-based; settings: CHO-SGLT2 cells, 10 μM [14C]AMG, 2 h, 37° C.
T1 construct: expressed in transfected cells
T1 sequence (P31639 1-672): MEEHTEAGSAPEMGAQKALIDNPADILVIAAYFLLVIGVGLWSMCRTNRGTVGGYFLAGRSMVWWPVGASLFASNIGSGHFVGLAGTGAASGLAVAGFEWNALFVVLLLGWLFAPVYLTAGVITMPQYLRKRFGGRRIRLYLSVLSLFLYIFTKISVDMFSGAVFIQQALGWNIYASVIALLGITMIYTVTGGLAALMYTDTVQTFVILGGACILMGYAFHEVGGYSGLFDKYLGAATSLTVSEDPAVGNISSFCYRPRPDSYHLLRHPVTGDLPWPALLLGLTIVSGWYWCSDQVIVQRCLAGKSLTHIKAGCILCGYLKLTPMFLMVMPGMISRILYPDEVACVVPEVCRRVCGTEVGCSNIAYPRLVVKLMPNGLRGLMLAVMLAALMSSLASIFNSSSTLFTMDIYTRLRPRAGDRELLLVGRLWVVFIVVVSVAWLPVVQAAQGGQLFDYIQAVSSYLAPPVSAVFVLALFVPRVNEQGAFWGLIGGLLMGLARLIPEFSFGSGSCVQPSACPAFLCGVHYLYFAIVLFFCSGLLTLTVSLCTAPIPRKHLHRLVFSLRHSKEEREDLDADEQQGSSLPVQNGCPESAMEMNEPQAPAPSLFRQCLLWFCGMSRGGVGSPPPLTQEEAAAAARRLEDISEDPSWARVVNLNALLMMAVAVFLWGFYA
Description: The evaluation was performed in the same manner as the evaluation of SGLT1 inhibition, except that an SGLT2-overexpressing cell line (CHO-SGLT2 stable cells) was used, and the inhibitory evaluation substances described below were used.

[2] = biological target: T2, SGLT1 (Homo sapiens, UniProt P13866); assay: Change in SGLT1 inhibition according to drug pretreatment time (CHO-SGLT1); type: cell-based; settings: pretreatment 0, 1, 2 h; one-way ANOVA
T2 construct: expressed in transfected cells
T2 sequence (P13866 1-664): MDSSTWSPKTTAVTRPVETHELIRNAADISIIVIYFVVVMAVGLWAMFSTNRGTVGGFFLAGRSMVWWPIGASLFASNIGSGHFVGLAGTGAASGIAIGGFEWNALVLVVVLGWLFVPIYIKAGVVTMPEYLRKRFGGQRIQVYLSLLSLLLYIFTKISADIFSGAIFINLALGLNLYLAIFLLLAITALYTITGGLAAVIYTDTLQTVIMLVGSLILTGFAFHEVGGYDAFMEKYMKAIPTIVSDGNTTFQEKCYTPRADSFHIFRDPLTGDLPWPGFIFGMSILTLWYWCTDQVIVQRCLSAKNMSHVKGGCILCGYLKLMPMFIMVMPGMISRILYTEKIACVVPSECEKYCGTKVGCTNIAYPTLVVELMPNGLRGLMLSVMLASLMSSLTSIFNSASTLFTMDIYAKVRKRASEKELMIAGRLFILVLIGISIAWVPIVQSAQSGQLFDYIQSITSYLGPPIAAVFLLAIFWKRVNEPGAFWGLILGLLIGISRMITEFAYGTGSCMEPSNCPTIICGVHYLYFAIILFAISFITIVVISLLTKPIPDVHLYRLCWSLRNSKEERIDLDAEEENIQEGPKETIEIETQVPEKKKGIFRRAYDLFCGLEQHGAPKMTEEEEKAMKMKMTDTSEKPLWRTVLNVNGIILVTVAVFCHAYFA
Text: (§1) All data values are expressed as the mean±SD of […].

[3] = biological target: T2, SGLT1; assay: SGLT1 inhibition with varied substrate AMG concentration (Dixon / L-B plot); type: cell-based; settings: CHO-SGLT1, varied AMG concentration
Description: (§3) From these, the inhibition mechanism was confirmed, and the inhibition constant was calculated.

[4] = biological target: T1, SGLT2; assay: Change in SGLT2 inhibition according to drug pretreatment time (CHO-SGLT2); type: cell-based; settings: for IC50: CHO-SGLT2
Text: as §1

[5] = biological target: T1, SGLT2; assay: SGLT2 inhibition with varied substrate AMG concentration (Dixon / L-B plot); type: cell-based
Description: as §3

[6] = test system: STZ-induced type 1 diabetic rats; assay: Oral glucose tolerance test in type 1 diabetic rat model; type: in vivo; settings: STZ rats, 1 mg/kg, glucose 2 g/kg oral
Description: (§2) STZ was administered to Sprague Dawley (SD) male 5-week-old rats on day 0 (G2 to G7, excluding G1), and non-fasting blood glucose levels were measured on day 3 to determine whether type 1 diabetes was induced. On day 7, the experimental substances were administered to each group, and blood and urine samples were collected at 6 h, 24 h, 48 h, and 72 h to measure non-fasting blood glucose levels. On day 14 of the experiment, the experimental animals were fasted for 16 h, and on day 15, 2 g/kg of glucose solution was orally administered after the experimental substances were administered. Thereafter, blood glucose levels were measured at 15, 30, 60, 90, and 120 minutes after glucose administration. After blood collection, the serum was separated, and the IL-6 inflammatory response was evaluated using an interleukin-6 (IL-6) enzyme-linked immunosorbent assay (ELISA) kit.

[7] = test system: interleukin-6 (IL-6); assay: Serum IL-6 ELISA in type 1 diabetic rat model; type: in vivo; settings: STZ rats, 6, 24, 48, 72 hours after administration
Description: as §2

IC50 [1]	Inhibition mechanism, SGLT1 [3]	IC50 ([4]; IC50 according to pretreatment time (nM), SGLT2, 1 h, 1 h pretreatment in sodium-free buffer)	IC50 ([4]; IC50 according to pretreatment time (nM), SGLT2, 2 h, 2 h pretreatment in sodium-free buffer)	IC50 ([4]; no pretreatment, read-out: IC50 according to pretreatment time (nM), SGLT2, 0 h)	Change in SGLT2 inhibition as exposure time increased ([4]; pretreatment 0, 1, 2 h, one-way ANOVA)	Inhibition mechanism, SGLT2 ([5]; CHO-SGLT2, varied AMG concentration)	Ki ([5]; from slope of L-B plot, CHO-SGLT2)	SMILES	Change in SGLT1 inhibition as exposure time increased [2]	Blood glucose level in OGTT [6]	Change in IL-6 level [7]
6.65 ± 2.92 nM	Competitive inhibition	6.67 ± 1.29 nM	7.35 ± 0.82 nM	7.2 ± 2.33 nM	did not increase or significantly change	Competitive inhibition	5.15 nM	OC[C@H]1O[C@@H](c2ccc(Cl)c(Cc3ccc(O[C@H]4CCOC4)cc3)c2)[C@H](O)[C@@H](O)[C@@H]1O [Empagliflozin]	did not show any significant change or increase in inhibition		
								CCOc1ccc(Cc2cc([C@@H]3O[C@H](SC)[C@@H](O)[C@H](O)[C@H]3O)ccc2Cl)cc1 [Sotagliflozin]		lowering of the blood glucose level was observed	slight decrease
